Source: patent US10806711B2 (priority 2011, dated 2020)
Entries after “also recorded” stand apart in the source; their conditions may differ.

Experiments:
[1] = system: HL-1 cells; format: cell-based
Method: Cell Viability Assays—Cell viability was assessed using the ApoTox-Glo Triplex Assay (Promega, Madison, Wis.) per manufacturer's instructions. Briefly, HL-1 cells were seeded in 96 well plates at a density of 1×10^4 cells/well and allowed to grow overnight in Claycomb media supplemented with 10% FBS, 100 U/ml penicillin/streptomycin, and 2 mM L-glutamine. […] GF-AFC viability was then added to ApoTox-Glo Assay Buffer at a ratio of 10 μl GF-AFC to 2.0 ml Assay Buffer and 20 μl of this mixture was added to each well and cells were incubated at 37° C. for 30 minutes. Fluorescence was measured at 400 nm (ex)/505 nm (em) and the data was normalized to untreated control cells.

[2] = system: isolated ventricular myocytes; assay: Myocyte contractility measurement; format: cell-based, mouse; settings: ruthenium red pretreatment, 10^−7 M probenecid
Method: Isolation of ventricular myocytes—Hearts from WT mice (12-week old) were perfused on the Langendorff system with a modified Krebs-Henseleit buffer (KHB) composed of (mM) NaCl 118, KCl 5.4, HEPES 10, NaH2PO4 0.33, MgCl2 2, glucose 10, taurine 30, butanedione monoxime 10 (pH=7.4). Then an enzyme solution (KHB containing 0.7 mg/ml type II collagenase, 0.1% BSA and 25 μM CaCl2) was used to digest the hearts for 10 min. Finally, ventricles of the hearts were excised, minced and filtered to obtain isolated cells. After sufficient sedimentation, the supernatant was removed and the cells were resuspended. Myocyte contractility measurement—Myocytes were put on a plexiglass chamber containing a Tyrode's solution composed of (mM) NaCl 140, KCl, 5.4, MgCl2 1, CaCl2 1.8, HEPES 5, glucose 10 (pH=7.4). Myocytes were excited under 0.5 Hz field stimulation. After reaching the steady state, myocyte shortening and the rates of shortening (+dL/dt) and relengthening (−dL/dt) were imaged with a CCD camera and monitored by a video-edge detector. Drugs were dissolved in Tyrode's solution and perfused into the chamber. Data were continuously collected through the PCLAMP 9 software. Water soluble probenecid was used for all of the myocyte experiments.

[3] = system: isolated ventricular myocytes; assay: Myocyte Ca2+ transient and cytosolic Ca2+ measurement; format: cell-based, mouse
Method: Isolation of ventricular myocytes—Hearts from WT mice (12-week old) were perfused on the Langendorff system with a modified Krebs-Henseleit buffer (KHB) composed of (mM) NaCl 118, KCl 5.4, HEPES 10, NaH2PO4 0.33, MgCl2 2, glucose 10, taurine 30, butanedione monoxime 10 (pH=7.4). Then an enzyme solution (KHB containing 0.7 mg/ml type II collagenase, 0.1% BSA and 25 μM CaCl2) was used to digest the hearts for 10 min. Finally, ventricles of the hearts were excised, minced and filtered to obtain isolated cells. After sufficient sedimentation, the supernatant was removed and the cells were resuspended.
Myocyte Ca^2+ transient and cytosolic Ca^2+ measurement—Myocytes were loaded with Fluo-4 acetoxymethyl ester (7 μM) for 20 min at room temperature, followed by a 10 min wash with Tyrode's solution, and then placed onto a plexiglass chamber for recording. For Ca^2+ transient measurements, myocytes were excited under 0.5 Hz and 3 Hz field stimulation, and the fluorescence signals were obtained using a Nikon TE 2000 microscope and collected through an InCyt Standard photometry system. For cytosolic Ca^2+ analysis in quiescent myocytes, a Zeiss LSM 510 confocal microscope was used to record fluorescent images from resting myocytes. Line-scan mode was applied at 3.07 ms intervals with 512 pixels spaced at 0.056 μm. Drugs were dissolved in Tyrode's solution and perfused into the chamber. Images of myocytes were recorded every 30 s after drug application. Data analysis was performed using Clampfit 9.2 and Image J 1.44 software.
Water soluble probenecid was used for all of the myocyte experiments.

In the case of CC(C)NCC(O)c1ccc(O)c(O)c1 (stereo not shown) [isoproterenol], the “cell death at 24 hours, compared with H2O2 positive control” value ([1]; 1.0 mM, 24 hours) is reported as “substantial cell death; also recorded: indistinguishable from H2O2 positive controls”, the cells still viable ([1]; 1.0 mM, 24 hours) is reported as “less than 20%” and the cell death ([1]; 1.0 mM, after 4 and 8 hours of treatment) is reported as “significant amount of cell death”. For the same compound, the “cell death in HL-1 cells (Example 3 summary)” value ([1]; probenecid at supraphysiological, isoproterenol at clinically relevant concentrations) was “increased cell death”.

With N.N.N.N.N.N.N.N.N.N.N.N.N.N.[Cl-].[Cl-].[Cl-].[Cl-].[Cl-].[Cl-].[O-2].[O-2].[Ru+3].[Ru+3].[Ru+4] [ruthenium red] the “effect of pretreatment on probenecid's effect on myocyte contractility” value [2] was “completely abolished” and the “effect on the increase of cytosolic Ca2+ by probenecid” value ([3]; ruthenium red 1 μM applied, 0.1 μM probenecid) was “fully blocked”.

For C/C=C(/C)C(=O)O[C@H]1C(C)=C2[C@H]([C@@H]1OC(=O)CCCCCCC)[C@@](C)(OC(C)=O)C[C@H](OC(=O)CCC)[C@@]1(O)[C@H]2OC(=O)[C@@]1(C)O [thapsigargin], the “effect on the change in cytosolic Ca2+ by probenecid” value ([3]; thapsigargin 10^−6 M pretreatment 15 minutes, 10^−7 M probenecid) was “abolished”.
